Experimental data from patent US11471463B2, “Enhancers of cellular cannibalism for use to sensitize tumors to radiation therapy” (Institut Gustave-Roussy, priority 2017, dated 2022).
Entries after “also recorded” stand apart in the source; their conditions may differ. Counter-ions that a name gives are not always drawn.

What was measured:
[1] = test system: HCT116 cells; assay: Screening for enhancers of IR-mediated cellular cannibalism (imaging flow cytometry, confocal microscopy validation); format: cell-based, human; conditions: 8 Gray, 10 μM compound, 24 hours of culture
Description: FIG. 4 Identification of cannibalism modulators triggered by ionizing radiation. Compounds from the Prestwick (A) and CEA (F) libraries were tested for their capacities to induce cellular cannibalism after ionizing radiation. Cannibal cells were detected after homotypic cultures of 8 gray γ-irradiation HCT116 cells in the presence or absence of […] of the Prestwick (A) and CEA […] library compounds. Each dot represents one compound. Representative images are shown in (B, G). (C, H) HCT116 cells were treated with the indicated drugs. After 24 h of treatment, cell death was monitored by staining with 3,3 dihexyloxacarbocyanine iodide (DiOC6(3)) and PI, and the percentage of dying (DiOC6(3)^low PI^−, open bars) and dead (DiOC6(3)^low PI^+, closed bars) cells was determined by cytofluorometry. Validation of the cannibalism inducers by fluorescent microscopy. Representative images (D, I) and quantification (E, J) are shown. Results are means±s.e.m. of triplicate determinations.
Then, the screening of a library of chemical compounds was developed in order to identify compounds able to induce IR-mediated cellular cannibalism. Thus, HCT116 cells that have been treated with a radiation dose of 8 Gray were stained either with orange CMTMR cell tracker or green CMFDA cell tracker and cultivated in presence of 10 μM of chemical compounds. After 24 hours of culture, cells have been stained with nuclear dye (5 μg/ml of Hoechst 33342 during 1 h at 37° C.) and analyzed using the FlowSight® Imaging Flow Cytometer for cellular cannibalism. Each of these compounds were classified according to their Z-score^47 and identified respectively 13 and 11 candidate compounds (FIGS. 4A, 4B, 4F and 4G). Then, the identified compounds were validated by combining flow cytometry approaches (in order to eliminate cytotoxic compounds by simultaneously monitoring the depolarization of the internal mitochondrial membrane and the plasma membrane permeability of the treated cells) with confocal microscopy approaches (to confirm the modulation of IR-induced cellular cannibalism by candidate compounds) (FIGS. 4C-E and 4H-J). […] Finally, 16 chemical compounds that are able to enhance the capacity of IR to trigger cellular cannibalism were identified (FIGS. 4E and 4J, Tables 1&2).

[2] = test system: CT26 cells; assay: Anti-tumor vaccination assay, treated CT26 cells inoculated into BALB/c mice and rechallenge; format: in vivo, mouse; conditions: for Protective response after injection of cancer cells, compound alone: CT26 cells treated with 10 μM compound alone (no IR); for Frequency of mice showing a protective response: 8 Gy in presence of 10 μM compound for 24 hours
Description: FIG. 5. Identification of cannibalism modulators as immunogenic cell death inducers. MCA205 (A) or CT26 (E, I, M, Q) cells were treated with the indicated drugs. After 24 h of coculture with the indicated treatment, cell death was monitored by staining DiOC6(3) and PI, and the percentage of dying (DiOC6(3)^low PI^−, open bars) and dead (DiOC6(3)^low PI^+, closed bars) cells was determined by cytofluorometry. (B-D) MCA205 cells or (F-H, J-L, N-P, R-T) CT26 cells cocultured after x irradiation with the indicated compounds were inoculated subcutaneously into the right flank of […] or BALB/c mice, respectively. Seven days later, the mice were rechallenged with live cells injected into the opposite flank, and tumor growth was monitored (five mice per group).
FIG. 6. Tumor vaccination experiments. CT26 cells were treated for 24 hours with 10 μM VP331 (A, F, K), 10 μM Minaprine (B, G, L), 10 μM Lopa87 (C, H, M), 10 μM SG6163F (D, I, N), 10 μM Azaguanine-8 (8-aza) (E, J, O) alone or combined with 8 Gy ionizing radiation and inoculated (s.c.) into immunocompetent BALB/c mice, which were rechallenged at the opposite flank 7 days later with the same cancer cells. The percentage of tumor-free mice was evaluated three times a week for the following 38 days. Percentage of total tumor free mice (A-E), tumor free-mice at the first injection site (F to J, P) or at the second injection site (K to O, Q) are shown. (*P<0.05, **P<0.01, ***P<0.001, two-way ANOVA).
Considering that immunogenic cell death (ICD) inducers were identified (such as Digoxin, Digitoxin, Lanatoside C or Doxorubicin hydrochloride)^3, 4, 48-51) as IRCCE, the ability of these compounds to induce an antitumor immunity after radiotherapy was evaluated. First, a preclinical approaches was developed to study the immunological effects of IRCCE on two mouse models of carcinoma (colon CT26 carcinoma and fibrosarcoma MCA205). Initially, the ability of the combination of IRCCE+IR to trigger a specific anti-tumor immune response was appreciated using immunocompetent mice through anti-tumor vaccination assays. According to previously published studies^52, the injection of cancer cells succumbing to an immunogenic cell death (ICD) into immunocompetent mice must elicit a protective immune response that is specific for tumor antigens. Thus, 3×10^5 MCA205 cells were first treated with 10 μM of SG6163F for 24 hours. Then, treated cells were inoculated subcutaneously in 200 μl PBS into the lower flank of 8-week-old female C57BL/6 mice. One week later, 3×10^4 untreated control cells were inoculated into the contralateral flank of mice. Tumors were evaluated weekly using a common caliper. Animals bearing tumors that exceeded 20-25% body mass were euthanatized. […] Then, 3×10^6 CT26 cells were irradiated with 8 Gy in presence of 10 μM of SG6163F (FIGS. 5E and 5F), VP331 (FIGS. 5I and 5J), Minaprine dihydrochloride (FIGS. 5M and 5N) or LOPA87 (FIGS. 5Q and 5R) for 24 hours. Then, cells were inoculated as previously described subcutaneously in 200 μl PBS into the lower flank of 8-week-old female BALB/c mice. One week later, 5×10^5 untreated control cells were inoculated into the contralateral flank of mice and tumors were evaluated weekly using a common caliper. As previously mentioned, animals bearing tumors that exceeded 20-25% body mass were euthanatized. The percentage of dying cells in each condition was evaluated by determining with DiOC(6)3/IP staining (FIGS. 5E, 5I, 5M and 5Q). Finally, the ability of these compounds to repress the growth of cancer cells that have been injected 7 days after injection of irradiated and treated cancer cells was appreciated.
A second anti-tumor vaccination assay was done on CT26 mouse models of carcinoma as previously described. […]

[3] = second assay: CT26 cells, rechallenge 7 days later
[4] = first assay: CT26 cells, rechallenge one week later

| Molecule | Enhancement of IR-mediated cellular cannibalism (IRCCE) [1] | also measured |
| --- | --- | --- |
| Nc1nc2[nH]nnc2c(=O)[nH]1 [8-Azaguanine] | efficient cellular cannibalism enhancer | Protective response after injection of cancer cells, compound alone [2]: induce an increase of protective response; Frequency of mice showing a protective response [2, 3]: Significant increases in the frequency of mice showing a protective response |
| CCOC(=O)n1ccn(C)c1=S [Carbimazole] | no effect | – |
| C[C@H]1O[C@@H](O[C@H]2[C@@H](O)C[C@H](O[C@H]3[C@@H](O)C[C@H](O[C@H]4CC[C@@]5(C)[C@H](CC[C@@H]6[C@@H]5CC[C@]5(C)[C@@H](C7=CC(=O)OC7)CC[C@]65O)C4)O[C@@H]3C)O[C@@H]2C)C[C@H](O)[C@@H]1O [Digitoxin] | IRCCE; also recorded: efficient cellular cannibalism enhancer | – |
| C[C@H]1O[C@@H](O[C@H]2[C@@H](O)C[C@H](O[C@H]3[C@@H](O)C[C@H](O[C@H]4CC[C@@]5(C)[C@H](CC[C@@H]6[C@@H]5C[C@@H](O)[C@]5(C)[C@@H](C7=CC(=O)OC7)CC[C@]65O)C4)O[C@@H]3C)O[C@@H]2C)C[C@H](O)[C@@H]1O [Digoxin] | IRCCE; also recorded: efficient cellular cannibalism enhancer | – |
| COc1cccc2c1C(=O)c1c(O)c3c(c(O)c1C2=O)C[C@@](O)(C(=O)CO)C[C@@H]3O[C@H]1C[C@H](N)[C@H](O)[C@H](C)O1.Cl [Doxorubicine hydrochloride, Doxorubicin hydrochloride] | – | Enhancement of IR-mediated cellular cannibalism (IRCCE) ([1]; hydrochloride): efficient cellular cannibalism enhancer; Enhancement of IR-mediated cellular cannibalism (IRCCE) ([1]; listed as Doxorubicin hydrochloride, hydrochloride): IRCCE |
| COC(=O)Nc1nc2ccc(Sc3ccccc3)cc2[nH]1 [Fenbendazol] | no effect | – |
| CC(C(=O)O)c1ccc(-c2ccccc2)c(F)c1 (stereo not drawn) [Flurbiprofen] | efficient cellular cannibalism enhancer | – |
| CN(C)c1ccc(-c2cc(=O)[nH]c(-c3ccccc3)n2)cc1 [LOPA87] | efficient cellular cannibalism enhancer | Frequency of mice showing a protective response [2, 4]: significant increase in the frequency of mice showing a protective response; Frequency of mice showing a protective response [2, 3]: Significant increases in the frequency of mice showing a protective response |
| CC(=O)O[C@H]1C[C@H](O[C@H]2[C@@H](O)C[C@H](O[C@H]3[C@@H](O)C[C@H](O[C@H]4CC[C@@]5(C)[C@H](CC[C@@H]6[C@@H]5C[C@@H](O)[C@]5(C)[C@@H](C7=CC(=O)OC7)CC[C@]65O)C4)O[C@@H]3C)O[C@@H]2C)O[C@H](C)[C@H]1O[C@@H]1O[C@H](CO)[C@@H](O)[C@H](O)[C@H]1O [Lanatoside, Lanatoside C] | efficient cellular cannibalism enhancer | Enhancement of IR-mediated cellular cannibalism (IRCCE) ([1]; listed as Lanatoside C): IRCCE |
| CN1CCc2c(c3ccccc3n2Cc2ccccc2)C1 [Mebhydroline 1,5-napthalene disulfonate salt] | efficient cellular cannibalism enhancer | – |
| Cc1cc(-c2ccccc2)nnc1NCCN1CCOCC1.Cl.Cl [Minaprine dihydrochloride] | efficient cellular cannibalism enhancer | Protective response after injection of cancer cells, compound alone ([2]; dihydrochloride): induce an increase of protective response; also recorded: intrinsic protective effects against tumor development; Frequency of mice showing a protective response [2, 4]: significant increase in the frequency of mice showing a protective response; Frequency of mice showing a protective response [2, 3]: Significant increases in the frequency of mice showing a protective response |
| COc1cc(O)ccc1/C=N/c1ccccc1C(=O)Nc1ccccc1 [RN-1-026] | efficient cellular cannibalism enhancer | – |
| CN1c2ccccc2C(=O)N(c2ccccc2)C1c1ccc(-c2csc(CO)c2)s1 (stereo not drawn) [VP43] | efficient cellular cannibalism enhancer | – |
| COc1ccc(C)cc1/C=N/[C@@H]1C[C@@H]2C[C@H]([C@H]1C)C2(C)C [VP331] | efficient cellular cannibalism enhancer | Frequency of mice showing a protective response [2, 4]: significant increase in the frequency of mice showing a protective response; Frequency of mice showing a protective response [2, 3]: Significant increases in the frequency of mice showing a protective response |
| O=C(N/N=C/c1ncc[nH]1)NC12CC3CC(CC(C3)C1)C2 [VP450] | efficient cellular cannibalism enhancer | – |
| Myricetin | efficient cellular cannibalism enhancer | – |
